Test results as given in patent US20180318199A1, “Pharmaceutical Composition Having Anti-Aging Properties against High-Glucose” (TAIWAN LEADER BIOTECH CORP., priority 2017, published 2018).

Legend:
[1] = test system: Nrf2; test: ARE luciferase reporter assay (Nrf2 transcriptional activity) in HNDFs; assay type: cell-based, human; settings: 6 h; for relative ARE luciferase activity, co-treated with HG: ANM 10 μM or NAC 100 μM + HG 30 mM, HG alone 2.5-fold; for relative ARE luciferase activity, compound alone: ANM 10 μM or NAC 100 μM, control 1-fold, HG 2.5-fold
Method: Therefore, to determine whether ANM augments Nrf2 transcriptional activity, ARE-harboring luciferase reporter assay is used. In FIG. 5E, to determine the Nrf2 transcriptional activity, HNDFs are transiently transfected with ARE promoter construct using lipofectamine and incubated with ANM (10 μM) or NAC (100 μM) in the presence or absence of HG (30 mM) for 6 h. Cell lysates are mixed with luciferase reagents and quantified using an illuminometer. Relative ARE promoter activity is calculated by dividing the relative luciferace unit (RLU) of treated cells by RLU of untreated cells (NG).
Activation of P13K/AKT and mitogen-activated protein kinases (MAPKs), including ERK1/2, JNK/SAPK and p38 MAPK, facilitates Nrf2 transcriptional activation in a variety of human cell lines. […] To elucidate the upstream signaling events involved in ANM-induced Nrf2 transcriptional activity, cells are pre-incubated with pharmacological inhibitors of P13K/AKT (LY294002), ERK1/2 (PD98059), SAPK/JNK (SP600125) and p38MAPK (SB203580) for 2 h and treated with ANM for 6 h in the presence of HG. In FIG. 5G, HNDFs are pre-incubated with AKT, ERK1/2, JNK/SAPK and p38 MAPK inhibitors, including LY294002 (LY, 30 μM), PD98059 (PD, 30 μM), SP600125 (SP, 30 μM) and SB203580 (SB, 30 μM), respectively, for 2 h and then incubated with ANM (10 μM) in the presence of HG (30 mM) for 6 h. Cytoplasmic and nuclear fractions are prepared and subjected to western blot analysis. GAPDH and histone H3 are served as internal controls for the cytoplasmic and nuclear fraction, respectively.
ARE promoter activity is measured using a dual-luciferase reporter assay system (Promega, Madison, Wis.). […] Cells are then transfected with ARE plasmid (Qiagen, Hilden, Germany) using Lipofectamine 2000 (Invitrogen) and incubated for 36 h. […] The cell lysate is prepared and incubated with luciferase agents and the relative luminescence intensity is quantified using a spectrophotometer (Hidex Oy, Turku, Finland).

[2] = Cell-free DPPH free-radical scavenging assay; assay type: biochemical; settings: cell-free system
Method: Therefore, next to determine whether ANM acts directly as a free-radical scavenger, a cell-free DPPH free-radical scavenging assay is performed. In FIG. 5A, to determine the free-radical scavenging effect of ANM, cell-free DPPH assay is performed.

[3] = test system: Nrf2; test: Nrf2 nuclear localization by immunofluorescence in HNDFs; assay type: cell-based, human; settings: ANM 10 μM or NAC 100 μM, 2 h
Method: Transcriptional activation of Nrf2 is dependent upon the rate of […] followed by disassociation from cytoplasmic Keap-1. In FIG. 5F, to determine the nuclear localization of Nrf2, HNDFs are incubated with ANM (10 μM) or NAC (100 μM) in the presence or absence or HG (30 mM) for 2 h. The protein expression and localization of Nrf2 are measured by immunofluorescence using Nrf2 specific primary antibody and fluorescein isothiocyanate-conjugated secondary antibody (green). The subcellular and nuclear localization of Nrf2 is photographed using a fluoroscence microscope. DAPI (1 μM) is used to stain the nucleus.
HNDFs at a density of 1×10^4 cells/well are cultured in an eight-well glass Nunc Lab-Tek chamber (ThermoFisher Scientific, Waltham, Mass.). Cells are treated with ANM or NAC in the presence or absence of HG for 2-72 h. After incubation, culture medium is removed and cells are fixed in 4% paraformaldehyde for 15 min, permeabilized with 0.1% Triton X-100 for 10 min, washed and blocked with 10% FBS in PBS, and then incubated overnight with the corresponding primary antibodies in 1.5% FBS. […] Next, the cells are stained with 1 μg/mL 4′,6-diamidino-2-phenylindole (DAPI, Cell Signaling Technology) for 5 min, washed with PBS, and visualized using a fluorescence microscope (Motic Electric Group) at 40× magnification.

[4] = test system: Keap-1; test: Keap-1 protein level and ubiquitination (western blot, immunoprecipitation) in HNDFs; assay type: cell-based, human; settings: for ubiquitination of total protein: HNDFs treated with ANM or NAC
Method: Under normal physiological condition, Nrf2 is sequestered in the cytoplasm, where it associated with Keap-1, an actin-binding protein. Upon chemical treatment or oxidative stress conditions, the steady-state levels of Keap-1 is rapidly degraded through the ubiquitin-dependent proteasome pathway, which eventually causes Nrf2 accumulation and transcriptional activity. […] In FIG. 5H, the Keap-1 protein expression level is determined by western blotting.
In FIG. 5I, effect of ANM on ubiquitination of Keap-1 is examined. Equivalent amount of proteins are immune-precipitated with Keap-1 antibody and visualized by western blotting with ubiquitin antibody. […] Results are expressed as mean±S.E.M of three independent experiments. Statistical significance is set at ^ϕP<0.05 as compared to NG vs. HG or ANM alone or NAC alone and *P<0.05 as compared to HG vs. samples. […] Therefore, it is further examined whether AKT and ERK1/2 have any influence on Keap-1 ubiquitination. Cells are co-incubated with AKT, p38MAPK, JNK and ERK1/2 inhibitors in the presence of […]; and the Keap-1 ubiquitination is examined.
HNDFs are seeded at a density of 1×10^6 cells/dish in 10 cm dish and treated with ANM or pharmacological inhibitors of AKT, JNK/SAPK, p38 MAPK and ERK1/2 in the presence or absence of HG. After treatment, cells are lysed with RIPA buffer containing protease inhibitor cocktail. The lysates are homogenized and centrifuged at 16,000×g for 15 min at 4° C. The supernatant is collected and the protein concentration is determined by Bio-Rad protein assay reagent. Total protein extract containing 500 μg of proteins are precleared with protein-A agarose beads for 1 h and incubated with 3 μg of anti-Keap-1 antibody for overnight at 4° C. with gently shake. After overnight incubation, centrifuged at 2000×g for 5 min at 4° C., the supernatant is discarded and the reaming pellet is washed with RIPA buffer. Immunoprecipitated complexes are mixed with SDS sample buffer and denatured at 94° C. for 5 min. Equal amount of protein samples are subjected to western blotting. The ubiquitinated Keap-1 protein levels are determined by ubiquitin antibody.

| SMILES | relative ARE luciferase activity, co-treated with HG [1] [fold] | relative ARE luciferase activity, compound alone [1] [fold] | free-radical scavenging effect (DPPH) [2] | Nrf2 expression in the nucleus [3] | ubiquitination of Keap-1, co-incubated with HG ([4]; ANM + HG) | Keap-1 protein level ([4]; ANM alone or in HG-induced condition) | ubiquitination of Keap-1 ([4]; ANM alone, immunoprecipitation with anti-Keap-1) | ubiquitination of total protein [4] |
| --- | --- | --- | --- | --- | --- | --- | --- | --- |
| C=C(CCC(C)C1CCC2C3=C(C(=O)C(O)C21C)C1(C)CCC(O)C(C)C1CC3)C(C)C(=O)O (stereo not shown) [ANM, antcin M] | 8.5 | 5.8 | fails to scavenge free radicals | elevated Nrf2 expression in the nucleus | further increase | significantly decreased | remarkable increase | significant increase |
| CC(=O)N[C@@H](CS)C(=O)O [NAC, N-acetylcysteine, reference compound] | 8.2 | 6.3 | potent free-radical scavenging effect | elevated Nrf2 expression in the nucleus | – | – | – | significant increase |
